PubChem BioAssay (NCI)
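Method: 48-hour compound exposure of cells in 96-well plates, five concentrations, linear interpolation of endpoints. TGI marks complete inhibition of growth.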

How the values were obtained:
Experiment in all cases: NCI-60 cell line screen, 48 h
[1] = system: 786-0 renal
[2] = system: A498 renal
[3] = system: A549 NSCLC
[4] = system: ACHN renal
[5] = system: BT-549 breast
[6] = system: CAKI-1 renal
[7] = system: CCRF-CEM leukemia
[8] = system: COLO 205 colon
[9] = system: DU-145 prostate
[10] = system: EKVX NSCLC
[11] = system: HCC-2998 colon
[12] = system: HCT-116 colon
[13] = system: HCT-15 colon
[14] = system: HL-60(TB) leukemia
[15] = system: HOP-62 NSCLC
[16] = system: HS 578T breast
[17] = system: HT29 colon
[18] = system: IGROV1 ovarian
[19] = system: K-562 leukemia
[20] = system: KM12 colon
[21] = system: LOX IMVI melanoma
[22] = system: M14 melanoma
[23] = system: MALME-3M melanoma
[24] = system: MCF7 breast
[25] = system: MDA-MB-231 breast
[26] = system: MDA-MB-435
[27] = system: MDA-N
[28] = system: MOLT-4 leukemia
[29] = system: NCI-H226 lung
[30] = system: NCI-H23 lung
[31] = system: NCI-H460 lung
[32] = system: NCI-H522 lung
[33] = system: NCI/ADR-RES ovarian
[34] = system: OVCAR-3 ovarian
[35] = system: OVCAR-4 ovarian
[36] = system: OVCAR-5 ovarian
[37] = system: OVCAR-8 ovarian
[38] = system: PC-3 prostate
[39] = system: RPMI-8226 leukemia
[40] = system: SF-268 CNS
[41] = system: SF-295 CNS
[42] = system: SF-539 CNS
[43] = system: SK-MEL-2 melanoma
[44] = system: SK-MEL-28 melanoma
[45] = system: SK-OV-3 ovarian
[46] = system: SN12C renal
[47] = system: SNB-19 CNS
[48] = system: SNB-75 CNS
[49] = system: SR leukemia
[50] = system: SW-620 colon
[51] = system: T-47D breast
[52] = system: TK-10 renal
[53] = system: U251 CNS
[54] = system: UACC-257 melanoma
[55] = system: UACC-62 melanoma
[56] = system: UO-31 renal
[57] = system: HOP-92 NSCLC
[58] = system: RXF 393 renal
[59] = system: SK-MEL-5 melanoma

With `COC(=O)c1cc(CC2Cc3cc4c(cc3C2=O)CCC4)cc2c1CCC2` (centres undefined) the TGI [1] was greater than 100 µM, the TGI [2] was greater than 100 µM and the TGI [3] was greater than 100 µM. It also gave a TGI [4] greater than 100 µM, a TGI [5] greater than 100 µM and a TGI [6] greater than 100 µM. For the same compound, the TGI [7] was greater than 100 µM, the TGI [8] was greater than 100 µM and the TGI [9] was greater than 100 µM. The TGI [10] was greater than 100 µM, the TGI [11] was greater than 100 µM and the TGI [12] was greater than 100 µM. The TGI [13] was greater than 100 µM, the TGI [14] was greater than 100 µM and the TGI [15] was greater than 100 µM. It also gave a TGI [16] greater than 100 µM, a TGI [17] greater than 100 µM and a TGI [18] greater than 100 µM. The TGI [19] was greater than 100 µM, the TGI [20] was greater than 100 µM and the TGI [21] was greater than 100 µM. For the same compound, the TGI [22] was greater than 100 µM, the TGI [23] was greater than 100 µM and the TGI [24] was greater than 100 µM. The TGI [25] was greater than 100 µM, the TGI [26] was greater than 100 µM and the TGI [27] was greater than 100 µM. For the same compound, the TGI [28] was greater than 100 µM, the TGI [29] was greater than 100 µM and the TGI [30] was greater than 100 µM. For the same compound, the TGI [31] was greater than 100 µM, the TGI [32] was greater than 100 µM and the TGI [33] was greater than 100 µM. For the same compound, the TGI [34] was greater than 100 µM, the TGI [35] was greater than 100 µM and the TGI [36] was greater than 100 µM. For the same compound, the TGI [37] was greater than 100 µM, the TGI [38] was greater than 100 µM and the TGI [39] was greater than 100 µM. The TGI [40] was greater than 100 µM, the TGI [41] was greater than 100 µM and the TGI [42] was greater than 100 µM. It also gave a TGI [43] greater than 100 µM, a TGI [44] greater than 100 µM and a TGI [45] greater than 100 µM. It also gave a TGI [46] greater than 100 µM, a TGI [47] greater than 100 µM and a TGI [48] greater than 100 µM. For the same compound, the TGI [49] was greater than 100 µM, the TGI [50] was greater than 100 µM and the TGI [51] was greater than 100 µM. For the same compound, the TGI [52] was greater than 100 µM, the TGI [53] was greater than 100 µM and the TGI [54] was greater than 100 µM. The TGI [55] was greater than 100 µM and the TGI [56] was greater than 100 µM.
For `CC1(C)C(N2CCOCC2)CS1(=O)=O` (centres undefined), the TGI [1] was greater than 10 µM, the TGI [2] was greater than 10 µM and the TGI [3] was greater than 10 µM. The TGI [4] was greater than 10 µM, the TGI [5] was greater than 10 µM and the TGI [6] was greater than 10 µM. For the same compound, the TGI [7] was greater than 10 µM, the TGI [8] was greater than 10 µM and the TGI [9] was greater than 10 µM. The TGI [10] was greater than 10 µM, the TGI [11] was greater than 10 µM and the TGI [12] was greater than 10 µM. For the same compound, the TGI [13] was greater than 10 µM, the TGI [14] was greater than 10 µM and the TGI [15] was greater than 10 µM. It also gave a TGI [57] greater than 10 µM, a TGI [16] greater than 10 µM and a TGI [17] greater than 10 µM. For the same compound, the TGI [18] was greater than 10 µM, the TGI [19] was greater than 10 µM and the TGI [20] was greater than 10 µM. For the same compound, the TGI [21] was greater than 10 µM, the TGI [22] was greater than 10 µM and the TGI [23] was greater than 10 µM. It also gave a TGI [24] greater than 10 µM, a TGI [25] greater than 10 µM and a TGI [26] greater than 10 µM. It also gave a TGI [27] greater than 10 µM, a TGI [28] greater than 10 µM and a TGI [29] greater than 10 µM. For the same compound, the TGI [30] was greater than 10 µM, the TGI [31] was greater than 10 µM and the TGI [32] was greater than 10 µM. The TGI [33] was greater than 10 µM, the TGI [34] was greater than 10 µM and the TGI [35] was greater than 10 µM. It also gave a TGI [36] greater than 10 µM, a TGI [37] greater than 10 µM and a TGI [38] greater than 10 µM. For the same compound, the TGI [39] was greater than 10 µM, the TGI [58] was greater than 10 µM and the TGI [40] was greater than 10 µM. For the same compound, the TGI [41] was greater than 10 µM, the TGI [42] was greater than 10 µM and the TGI [43] was greater than 10 µM. The TGI [44] was greater than 10 µM, the TGI [59] was greater than 10 µM and the TGI [45] was greater than 10 µM. For the same compound, the TGI [46] was greater than 10 µM, the TGI [47] was greater than 10 µM and the TGI [48] was greater than 10 µM. For the same compound, the TGI [50] was greater than 10 µM, the TGI [51] was greater than 10 µM and the TGI [52] was greater than 10 µM. It also gave a TGI [53] greater than 10 µM, a TGI [54] greater than 10 µM and a TGI [55] greater than 10 µM. For the same compound, the TGI [56] was greater than 10 µM.
